# From paper PMC5626944 (Frontiers in Pharmacology, 2017)
# Read-outs that look alike come from different tables or passages of the source.
# Assays:
# Sigma 2 = test: NovaScreen competition binding; conditions: 1 µM
# Adrenergic, Beta 1 (h) = test: NovaScreen competition binding; set-up: species or system human; conditions: 1 µM
# Sigma 1 = test: NovaScreen competition binding; conditions: 1 µM
# Serotonin Transporter = test: NovaScreen competition binding; conditions: 1 µM
# GABA A, Agonist Site = test: NovaScreen competition binding; conditions: 1 µM
# [1] = test system: Glutamate, NMDA, Phencyclidine Site (Ionotropic); test: NovaScreen competition binding; conditions: 1 µM
# [2] = test system: Nicotinic, Neuronal (α-BnTx insensitive); test: NovaScreen competition binding; conditions: 1 µM
# Description: (§1) Assays included the nicotinic drug [^3H]epibatidine binding to α-bungarotoxin-insensitive nAChRs, the 5-HT3 inhibitor [N-methyl-^3H]GR65630 to mouse receptors in N1E-115 cells, and human receptors expressed in a clonal cell line. Other assays included monoamine oxidase A, monoamine oxidase B, 5-HT transporter, norepinephrine transporter, and dopamine transporter, as well as other. G-protein-coupled receptors, ion channels, enzymes, and transporters.
# [3] = test system: Potassium Channel, ATP-Sensitive; test: NovaScreen competition binding; conditions: 1 µM
# Description: as §1
# [4] = test system: T1, GABA A, BDZ, alpha 1 site; test: NovaScreen competition binding; conditions: 1 µM
# T1 construct: PerkinElmer – Caliper Life Sciences (NovaScreen)
# [5] = test system: WT, α6L9′S, α6KO, α4KO and β2KO mice; test: Conditioned place preference; assay type: in vivo, mouse; conditions: for ED50: Mus musculus, read-out: CPP ED50
# Description: Male, 3–6-month-old mice were used in our CPP assays. Various genotypes were used: WT, α6L9′S, α4L9′S (hypersensitive […]), α6KO, α4KO, and β2KO. All WT mice were C57BL/6J and all other genotypes have been backcrossed with C57BL/6J mice for ≥10 generations. The CPP apparatus (Med Associates, East Fairfield, VT, United States) was a rectangular cage with interior dimensions of 46.5 × 12.7 × 12.7(H) cm, divided into three sub-compartments: white and black (each 16.8 cm L) with steel mesh and rod floors, respectively, and a central gray compartment (7.2 cm L) with a solid plastic floor. […] Drop-down doors separated the chambers.
# Mice were housed singly and habituated to the experimental room for 3–7 days before initial testing and remained in the experimental room for the duration of the experiment. We chose a biased method for CPP. On day 1 (pre-training) mice were placed in the center chamber and allowed to explore the apparatus freely for 20 min. Time spent in each chamber was recorded, and drug pairing was determined by the least preferred chamber. Mice with a severe initial bias for one chamber (defined as ≥65% time spent in one conditioning chamber) were excluded. On days 2, 4, 6, and 8, mice were injected with the drug of interest, and were confined to the drug-paired chamber for 20 min. On days 3, 5, 7, and 9, mice were injected with saline and confined to the opposite chamber. On day 10 (post-training), mice were again given free access to the apparatus for 20 min, and the time spent in each chamber was recorded. CPP was determined by measuring the change in the difference between the time spent in the drug-paired chamber and the saline-paired chamber from pre- to post-training.
# Muscarinic, M5 (h) = test: NovaScreen competition binding; set-up: species or system human; conditions: 1 µM
# [6] = biological target: T2, High-sensitivity α4(2)β2(3) nAChRs (Mus musculus, UniProt O70174+Q9ERK7); test: 86Rb+ efflux from thalamic and cortical synaptosomes, DhβE-sensitive component; assay type: biochemical
# T2 construct: from tissue; host or cells: WT mouse thalamic and cortical synaptosomes
# Experimental: Regions of interest were dissected from fresh mouse brains and homogenized in ice-cold isotonic sucrose (0.32 M), buffered with HEPES (5 mM, pH 7.5). The suspension was centrifuged at 12,000 × g for 20 min.
# Kinase, Protein, PKA (h) = test system: T3, Kinase, Protein, PKA (h); test: NovaScreen enzyme assay; assay type: biochemical, human; conditions: 1 µM
# T3 construct: PerkinElmer – Caliper Life Sciences (NovaScreen service)
# [7] = test system: T4, Phosphodiesterase, PDE5A1 (h); test: NovaScreen enzyme assay; assay type: biochemical, human; conditions: 1 µM
# T4 construct: PerkinElmer – Caliper Life Sciences (NovaScreen service)
# [8] = biological target: Glutamate,NMDA,Glycine (Stry-insens Site) (Ionot (Rattus norvegicus, UniProt P35439)); test: NovaScreen competition binding
# [9] = test system: T5, Thromboxane A2 (h) [SQ 29,548]; test: NovaScreen competition binding; set-up: species or system human; conditions: 1 µM
# T5 construct: PerkinElmer – Caliper Life Sciences (NovaScreen service)
# T2 sequence (Q9ERK7 26-501): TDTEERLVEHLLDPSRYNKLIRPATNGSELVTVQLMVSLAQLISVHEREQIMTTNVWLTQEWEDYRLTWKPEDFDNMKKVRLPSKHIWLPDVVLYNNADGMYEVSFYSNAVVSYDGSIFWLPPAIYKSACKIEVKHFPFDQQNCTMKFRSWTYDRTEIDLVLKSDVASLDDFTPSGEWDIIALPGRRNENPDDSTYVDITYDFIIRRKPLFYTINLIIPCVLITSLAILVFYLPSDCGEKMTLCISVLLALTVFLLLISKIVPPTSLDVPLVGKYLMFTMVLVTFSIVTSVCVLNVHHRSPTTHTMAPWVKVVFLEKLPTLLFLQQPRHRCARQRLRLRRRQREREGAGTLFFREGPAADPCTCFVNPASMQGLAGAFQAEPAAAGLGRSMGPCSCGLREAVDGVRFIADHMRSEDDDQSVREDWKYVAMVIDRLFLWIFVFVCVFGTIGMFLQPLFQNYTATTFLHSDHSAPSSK
# T2 sequence (O70174 31-629): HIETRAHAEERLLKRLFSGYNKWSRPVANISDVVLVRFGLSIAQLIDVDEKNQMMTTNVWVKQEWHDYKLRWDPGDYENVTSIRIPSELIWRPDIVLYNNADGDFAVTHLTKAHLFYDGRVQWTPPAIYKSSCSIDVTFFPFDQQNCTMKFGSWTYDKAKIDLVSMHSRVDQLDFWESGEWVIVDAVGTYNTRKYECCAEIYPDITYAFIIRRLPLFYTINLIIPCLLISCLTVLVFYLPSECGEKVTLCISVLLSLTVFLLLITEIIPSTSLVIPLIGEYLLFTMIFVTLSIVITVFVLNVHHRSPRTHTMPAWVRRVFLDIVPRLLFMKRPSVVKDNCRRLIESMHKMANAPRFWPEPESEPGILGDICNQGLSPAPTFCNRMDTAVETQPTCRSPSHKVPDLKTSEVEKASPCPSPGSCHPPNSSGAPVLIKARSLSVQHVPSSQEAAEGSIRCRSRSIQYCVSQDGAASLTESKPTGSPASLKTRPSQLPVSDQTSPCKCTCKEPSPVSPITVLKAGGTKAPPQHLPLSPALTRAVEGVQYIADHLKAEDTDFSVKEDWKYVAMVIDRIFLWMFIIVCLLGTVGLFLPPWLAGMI
# Sequence of Glutamate,NMDA,Glycine (Stry-insens Site) (Ionot (P35439 394-863 limits assumed): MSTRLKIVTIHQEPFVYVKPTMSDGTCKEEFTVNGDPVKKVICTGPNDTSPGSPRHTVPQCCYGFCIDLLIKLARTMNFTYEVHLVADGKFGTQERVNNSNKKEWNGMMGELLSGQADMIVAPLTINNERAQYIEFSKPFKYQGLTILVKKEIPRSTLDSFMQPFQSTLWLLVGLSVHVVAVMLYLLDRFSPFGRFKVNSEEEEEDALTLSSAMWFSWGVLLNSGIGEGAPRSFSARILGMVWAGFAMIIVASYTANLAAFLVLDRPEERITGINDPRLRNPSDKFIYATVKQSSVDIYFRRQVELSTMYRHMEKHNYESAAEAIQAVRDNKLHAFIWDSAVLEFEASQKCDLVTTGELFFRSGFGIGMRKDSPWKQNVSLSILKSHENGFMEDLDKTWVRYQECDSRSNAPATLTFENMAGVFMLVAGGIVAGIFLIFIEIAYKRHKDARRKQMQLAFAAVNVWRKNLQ
smiles,measurement,setting,value
"C1=C(/c2cncnc2)CCCNCC/1 [TC299423, (E)-5-(pyrimidin-5-yl)-1,2,3,4,7,8-hexahydroazocine]",Hit,Sigma 2,FALSE
same,Inhibition,Sigma 2; [3H]-DTG,-0.65%
same,Hit,"Adrenergic, Beta 1 (h)",FALSE
same,Inhibition,"Adrenergic, Beta 1 (h); [125I] (-) Iodocyanopindolol",11.21%
same,Hit,Sigma 1,FALSE
same,Inhibition,Sigma 1; [3H]-(+)-Pentazocine,-0.52%
same,Hit,Serotonin Transporter,FALSE
same,Inhibition,"Serotonin Transporter; [3H]Citalopram, N-Methyl",7.03%
same,Hit,"GABA A, Agonist Site",FALSE
same,Inhibition,"GABA A, Agonist Site; [3H]GABA",-2.66%
same,Hit,[1],FALSE
same,Inhibition,[1]; [3H]TCP,7.71%
same,Hit,[2],TRUE (TC299423 inhibited >50% of the reference radioligand for two sites)
same,Inhibition,[2]; [3H]Epibatidine,93.33%
same,Hit,[3],TRUE (TC299423 inhibited >50% of the reference radioligand for two sites)
same,Inhibition,[3]; [3H]Glibenclamide,52.12%
same,Hit,[4],FALSE
same,Inhibition,[4]; [3H]Flunitrazepam,11.84%
same,CPP difference scores in α4KO mice vs WT,[5]; 0.012 mg/kg,no effect
same,CPP difference scores in α6KO and β2KO mice vs WT,[5]; 0.012 mg/kg,dramatically reduced
same,ED50,"[5]; WT mice, Michaelis–Menten fit",4 ± 3 µg/kg
same,ED50,[5]; α6L9′S mice,< 1 µg/kg
same,CPP difference score vs saline-injected control,"[5]; WT mice, 0.012 mg/kg, t-test p = 0.047",marginally significant increase
same,Overall effect on CPP,"[5]; WT mice, 1, 4, 12, 25 μg/kg, one-way ANOVA",no significant overall effect
same,Overall effect on the CPP difference score,"[5]; α6L9′S mice, 1, 4, 12, 25 μg/kg, one-way ANOVA",highly significant overall effect
same,CPP difference score vs saline-injected controls,"[5]; α6L9′S mice, 1 and 25 μg/kg, Tukey HSD p < 0.05",significantly greater than the saline-injected controls
same,Hit,"Muscarinic, M5 (h)",FALSE
same,Inhibition,"Muscarinic, M5 (h); [3H]Scopolamine, N-Methyl",2.24%
same,86Rb+ efflux Efficacy,[6]; Cortex,94 ± 7%
same,EC50,"[6]; Cortex, read-out: 86Rb+ efflux EC50",2000 ± 2000 nM
same,86Rb+ efflux Efficacy,[6]; Thalamus,139 ± 14%
same,EC50,"[6]; Thalamus, read-out: 86Rb+ efflux EC50",600 ± 100 nM
same,EC50,"[6]; thalamic and cortical synaptosomes, read-out: EC50 for the DhβE-sensitive α4β2* nAChRs",600 to 2000 nM
same,Hit,"Kinase, Protein, PKA (h)",FALSE
same,Inhibition,"Kinase, Protein, PKA (h); substrate Fluorescein-labeled peptide",-5.00%
same,Hit,[7],FALSE
same,Inhibition,[7]; substrate Fluorescent cyclic GMP,-3.00%
same,Hit,[8]; 1 µM,FALSE
same,inhibition at 1 µM,"[8]; [3H]-MDL-105,519",4.34%
same,Hit,[9],FALSE
same,Inhibition,"[9]; 3H SQ 29,548",3.14%
